Drawing on patent publication US20110086759A1, “CHEMICAL COMPOUNDS” (SYNGENTA CROP PROTECTION, INC., priority 2007, published 2011), this text covers pest or weed control for nine compounds.

What all share (type): in vivo
In test [1] the test system is Alopecurus myosuroides (ALOMY). Briefly: Pre-emergence biological efficacy, glasshouse pot test. Particulars: 312 h, pre-emergence, rate 1,000 g/ha, evaluated after 13 days (100=total damage to plant; 0=no damage), read-out: Percentage damage caused to weed species, ALOMY. Summed up:
(§1)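 Visual phytotoxicity (0 no damage, 100 total damage) assessed 13 d after treatment. Soil-sown pots sprayed one day post-sowing; dose 1000 or 250 g/ha; formulation in acetone/water 50:50, 0.5% Tween 20.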

Test [2] has as its system Amaranthus retoflexus (AMARE). The test is described as above. The settings on record: Amaranthus retroflexus, 312 h; pre-emergence, rate 1,000 g/ha, evaluated after 13 days (100=total damage to plant; 0=no damage); read-out: Percentage damage caused to weed species, AMARE. Summed up: as §1
The subject of test [3] is Echinochloa crus-galli (ECHCG). The test is described as above. The settings on record: 312 h, pre-emergence, rate 1,000 g/ha, evaluated after 13 days (100=total damage to plant; 0=no damage), read-out: Percentage damage caused to weed species, ECHCG. Summed up: as §1
The subject of test [4] is Ipomea hederaceae (IPOHE). The test is described as above. Particulars: Ipomoea hederacea, 312 h; pre-emergence, rate 1,000 g/ha, evaluated after 13 days (100=total damage to plant; 0=no damage); read-out: Percentage damage caused to weed species, IPOHE. Summed up: as §1
The test system of test [5] is Setaria faberi (SETFA). Described as above. Particulars: 312 h, pre-emergence, rate 1,000 g/ha, evaluated after 13 days (100=total damage to plant; 0=no damage), read-out: Percentage damage caused to weed species, SETFA. Summed up:
as §1

Test [6] deals with Solanum nigrum (SOLNI). The description is as above. The settings on record: 312 h, pre-emergence, rate 1,000 g/ha, evaluated after 13 days (100=total damage to plant; 0=no damage), read-out: Percentage damage caused to weed species, SOLNI. Summed up: as §1
In test [7] the test system is Alopecurus myosuroides (ALOMY). The experiment in a line: Post-emergence biological efficacy, glasshouse pot test. The settings on record: 312 h, Rate 1,000 g/ha, post-emergence spray, evaluated after 13 days (100=total damage to plant; 0=no damage to plant), read-out: Percentage damage caused to weed species, post-emergence, ALOMY. Summed up:
(§2)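 Pot-grown weeds were sprayed 8 days after sowing with test compound in acetone/water (50:50) with 0.5% Tween 20 at 1000 or 250 g/ha. Glasshouse at 24/16° C day/night, 14 h light, 65% humidity. Damage scored 0-100 (100 = total damage) after 13 days.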

Test [8] deals with Amaranthus retoflexus (AMARE). Described as above. The settings on record: Amaranthus retroflexus, 312 h; Rate 1,000 g/ha; post-emergence spray; evaluated after 13 days (100=total damage to plant; 0=no damage to plant); read-out: Percentage damage caused to weed species, post-emergence, AMARE. Summed up: as §2
Test [9] deals with Echinochloa crus-galli (ECHCG). The description is as above. Particulars: 312 h, Rate 1,000 g/ha, post-emergence spray, evaluated after 13 days (100=total damage to plant; 0=no damage to plant), read-out: Percentage damage caused to weed species, post-emergence, ECHCG. Summed up:
as §2

The subject of test [10] is Ipomea hederaceae (IPOHE). Described as above. The settings on record: Ipomoea hederacea, 312 h; Rate 1,000 g/ha; post-emergence spray; evaluated after 13 days (100=total damage to plant; 0=no damage to plant); read-out: Percentage damage caused to weed species, post-emergence, IPOHE. Summed up:
as §2

The test system of test [11] is Setaria faberi (SETFA). The description is as above. Particulars: 312 h, Rate 1,000 g/ha, post-emergence spray, evaluated after 13 days (100=total damage to plant; 0=no damage to plant), read-out: Percentage damage caused to weed species, post-emergence, SETFA. Summed up: as §2
Test [12] has as its system Solanum nigrum (SOLNI). The description is as above. Particulars: 312 h, Rate 1,000 g/ha, post-emergence spray, evaluated after 13 days (100=total damage to plant; 0=no damage to plant), read-out: Percentage damage caused to weed species, post-emergence, SOLNI. Summed up:
as §2

On to `CCN(Cc1ccc(C)o1)c1nc(C2CC2)nc(C(=O)OC)c1Cl` [Compound 6-135, 5-Chloro-2-cyclopropyl-4-[N-ethyl-N-(5-methylfuran-2-ylmethyl)-amino]-6-methoxycarbonyl-pyrimidine], for which the pest or weed control at 1000 g/ha in test [1] was determined as 40%; in test [2], 100%; in test [3] it was 60%; in test [4], 100%; in the test with Setaria faberi (SETFA) [5], 40%; in the test with Solanum nigrum (SOLNI) [6], 80%. Also, the pest or weed control at 1000 g/ha stood at 30% in test [7]; 100% in test [8]; 60% in test [9]; 90% in [10]; 90% with Setaria faberi (SETFA) [11]; 90% in the test with Solanum nigrum (SOLNI) [12].
`CCN(Cc1cccs1)c1nc(C2CC2)nc(C(=O)OC)c1Cl` [Compound 6-140, 5-Chloro-2-cyclopropyl-4-(N-ethyl-N-thiophen-2-ylmethyl-amino)6-methoxycarbonyl-pyrimidine]: the pest or weed control at 1000 g/ha in [1] turned out to be 10%; in test [2] it was 80%; in test [3], 20%; in test [4] it was 80%; with Setaria faberi (SETFA) [5], 0%; in the test with Solanum nigrum (SOLNI) [6], 30%. Moreover, the pest or weed control at 1000 g/ha in test [7] came to 40%; in test [8], 100%; in test [9], 40%; in [10], 100%; with Setaria faberi (SETFA) [11] it was 70%; in the test on Solanum nigrum (SOLNI) [12], 80%.
For `CCN(Cc1ccc(Br)s1)c1nc(C2CC2)nc(C(=O)OC)c1Cl` [Compound 6-142, 4-[N-(5-bromothiophen-2-ylmethyl)-N-ethyl-amino]-5-chloro-2-cyclopropyl-6-methoxycarbonyl-pyrimidine], the pest or weed control at 1000 g/ha amounted to 0% in test [1]; 50% in test [2]; 0% in test [3]; 60% in [4]; 10% with Setaria faberi (SETFA) [5]; 10% in the test on Solanum nigrum (SOLNI) [6]. Moreover, the pest or weed control at 1000 g/ha in test [7] worked out at 30%; in [8], 100%; in test [9], 60%; in test [10], 100%; in the test with Setaria faberi (SETFA) [11] it was 90%; in the test with Solanum nigrum (SOLNI) [12], 90%.
As for `CCN(Cc1ccnc(C)n1)c1nc(C2CC2)nc(C(=O)OC)c1Cl` [Compound 6-161, 5-Chloro-2-cyclopropyl-4-[N-ethyl-N-(2-methylpyrimidin-4-ylmethyl)-amino]-6-methoxycarbonyl-pyrimidine], the pest or weed control at 1000 g/ha in [1] was determined as 0%; in test [2], 100%; in test [3] it was 0%; in test [4] it was 80%; in the test with Setaria faberi (SETFA) [5] it was 0%; with Solanum nigrum (SOLNI) [6], 20%. Besides, the pest or weed control at 1000 g/ha was 0% in test [7]; 70% in [8]; 0% in test [9]; 80% in test [10]; 30% in the test with Setaria faberi (SETFA) [11]; 70% in the test on Solanum nigrum (SOLNI) [12].
For `CCOC(=O)c1nc(C2CC2)nc(NCc2ccccc2)c1Cl` [Compound 7-60, 5-chloro-2-cyclopropyl-6-ethoxycarbonyl-4-phenylmethyl-aminopyrimidine], the pest or weed control at 1000 g/ha in test [1] came to 30%; in test [2], 70%; in test [3], 50%; in test [4] it was 70%; in the test on Setaria faberi (SETFA) [5], 50%; in the test with Solanum nigrum (SOLNI) [6], 90%. The pest or weed control at 1000 g/ha in test [7] was 30%; in test [8], 100%; in test [9] it was 70%; in [10], 90%; with Setaria faberi (SETFA) [11], 90%; in the test on Solanum nigrum (SOLNI) [12], 90%.
In the case of `CCOC(=O)c1nc(C2CC2)nc(NCc2ccco2)c1Cl` [Compound 7-125, 5-Chloro-2-cyclopropyl-6-ethoxycarbonyl-4-(2-furanylmethyl-amino)pyrimidine], the pest or weed control at 1000 g/ha in test [1] is 60%; in test [2], 100%; in [3], 90%; in test [4], 100%; in the test with Setaria faberi (SETFA) [5], 80%; in the test on Solanum nigrum (SOLNI) [6], 100%. The pest or weed control at 1000 g/ha amounted to 90% in [7]; 100% in [8]; 80% in test [9]; 100% in test [10]; 90% with Setaria faberi (SETFA) [11]; 90% in the test on Solanum nigrum (SOLNI) [12].
Regarding `O=C(O)c1nc(-c2ccc(Cl)cc2)nc(NCc2ccco2)c1Cl` [Compound 37-125, 5-Chloro-2-(4-chlorophenyl)-4-(furan-2-ylmethylamino)-pyrimidine-6-carboxylic acid], the pest or weed control at 1000 g/ha came out at 50% in [1]; 100% in test [2]; 90% in test [3]; 40% in [4]; 90% with Setaria faberi (SETFA) [5]; 100% with Solanum nigrum (SOLNI) [6]. For the same compound, the pest or weed control at 1000 g/ha turned out to be 70% in [7]; 100% in test [8]; 90% in test [9]; 100% in test [10]; 100% with Setaria faberi (SETFA) [11]; 100% with Solanum nigrum (SOLNI) [12].
For the compound `COC(=O)c1nc(-c2ccc(Cl)cc2)nc(NC2CC2)c1Cl` [Compound 40-1, 5-Chloro-2-(4-chloro-phenyl)-4-cyclo-propylamino-6-methoxycarbonyl-pyrimidine], the pest or weed control at 1000 g/ha in [1] amounted to 40%; in [2], 100%; in test [3] it was 50%; in [4], 30%; in the test on Setaria faberi (SETFA) [5], 30%; with Solanum nigrum (SOLNI) [6], 40%. For the same compound, the pest or weed control at 1000 g/ha in [7] was determined as 40%; in test [8], 100%; in test [9], 50%; in [10], 70%; with Setaria faberi (SETFA) [11], 90%; in the test with Solanum nigrum (SOLNI) [12], 100%.
In the case of `COC(=O)c1nc(-c2ccc(Cl)cc2)nc(NCc2ccccc2)c1Cl` [Compound 40-60, 5-Chloro-2-(4-chlorophenyl)-6-methoxycarbonyl-4-(phenylmethylamino) pyrimidine], the pest or weed control at 1000 g/ha was 20% in [1]; 90% in [2]; 50% in [3]; 0% in test [4]; 0% with Setaria faberi (SETFA) [5]; 30% in the test on Solanum nigrum (SOLNI) [6]. Besides, the pest or weed control at 1000 g/ha in test [7] is 0%; in test [8], 60%; in test [9] it was 0%; in [10] it was 100%; with Setaria faberi (SETFA) [11], 0%; with Solanum nigrum (SOLNI) [12], 70%.
